Experimental data from paper PMC7026418, “The kinase polypharmacology landscape of clinical PARP inhibitors” (Scientific Reports, 2020).
Where two headings read alike, the source gives them in different places. Each block holds one compound with its values, some of them ahead of it.

What was measured:
Test in all cases: biochemical
Design in all cases: DiscoveRx KINOMEscan active site-directed competition binding; percent of control kinase bound to immobilised ligand
[1] = biological target: T1, MST4 (Homo sapiens, UniProt Q9P289)
T1 construct: gene STK26
T1 sequence (Q9P289 whole entry): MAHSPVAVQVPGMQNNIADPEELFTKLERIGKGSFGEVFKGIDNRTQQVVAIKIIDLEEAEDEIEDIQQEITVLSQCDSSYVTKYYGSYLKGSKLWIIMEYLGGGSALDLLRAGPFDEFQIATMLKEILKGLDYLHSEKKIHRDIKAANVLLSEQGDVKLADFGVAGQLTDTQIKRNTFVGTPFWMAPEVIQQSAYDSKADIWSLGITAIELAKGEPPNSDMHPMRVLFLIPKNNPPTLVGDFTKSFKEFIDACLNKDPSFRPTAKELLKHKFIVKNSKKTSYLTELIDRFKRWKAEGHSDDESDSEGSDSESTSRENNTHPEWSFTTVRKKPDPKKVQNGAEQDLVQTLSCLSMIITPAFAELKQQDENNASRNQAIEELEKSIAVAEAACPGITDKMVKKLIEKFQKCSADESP

[2] = biological target: T2, EPHA3 (Homo sapiens, UniProt P29320)
T2 sequence (P29320 1-983): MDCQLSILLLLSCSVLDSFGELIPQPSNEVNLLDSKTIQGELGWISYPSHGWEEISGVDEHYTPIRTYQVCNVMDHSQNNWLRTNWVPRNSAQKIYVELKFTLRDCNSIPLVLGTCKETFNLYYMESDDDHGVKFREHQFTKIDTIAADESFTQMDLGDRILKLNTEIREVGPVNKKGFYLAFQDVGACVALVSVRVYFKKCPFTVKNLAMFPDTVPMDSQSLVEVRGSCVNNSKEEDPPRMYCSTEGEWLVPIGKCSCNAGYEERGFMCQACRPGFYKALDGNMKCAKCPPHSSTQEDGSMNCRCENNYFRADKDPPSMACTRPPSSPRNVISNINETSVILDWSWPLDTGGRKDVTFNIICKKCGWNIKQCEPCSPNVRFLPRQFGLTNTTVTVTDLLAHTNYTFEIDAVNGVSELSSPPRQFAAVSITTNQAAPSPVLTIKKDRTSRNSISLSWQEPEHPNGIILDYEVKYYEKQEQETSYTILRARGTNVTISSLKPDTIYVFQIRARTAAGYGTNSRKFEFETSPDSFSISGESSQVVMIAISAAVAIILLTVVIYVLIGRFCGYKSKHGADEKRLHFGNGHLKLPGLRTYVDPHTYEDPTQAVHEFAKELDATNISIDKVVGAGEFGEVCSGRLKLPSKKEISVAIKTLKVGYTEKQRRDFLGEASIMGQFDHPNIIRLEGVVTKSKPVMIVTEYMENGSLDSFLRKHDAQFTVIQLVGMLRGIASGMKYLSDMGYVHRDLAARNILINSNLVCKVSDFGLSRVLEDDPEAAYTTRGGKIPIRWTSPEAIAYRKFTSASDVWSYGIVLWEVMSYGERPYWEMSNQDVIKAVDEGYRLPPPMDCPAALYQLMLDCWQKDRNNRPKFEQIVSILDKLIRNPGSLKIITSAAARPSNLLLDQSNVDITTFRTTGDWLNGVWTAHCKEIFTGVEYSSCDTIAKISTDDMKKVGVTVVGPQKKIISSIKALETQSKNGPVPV

[3] = biological target: MYLK2 (Homo sapiens, UniProt Q9H1R3)
Sequence of MYLK2 (Q9H1R3 whole entry): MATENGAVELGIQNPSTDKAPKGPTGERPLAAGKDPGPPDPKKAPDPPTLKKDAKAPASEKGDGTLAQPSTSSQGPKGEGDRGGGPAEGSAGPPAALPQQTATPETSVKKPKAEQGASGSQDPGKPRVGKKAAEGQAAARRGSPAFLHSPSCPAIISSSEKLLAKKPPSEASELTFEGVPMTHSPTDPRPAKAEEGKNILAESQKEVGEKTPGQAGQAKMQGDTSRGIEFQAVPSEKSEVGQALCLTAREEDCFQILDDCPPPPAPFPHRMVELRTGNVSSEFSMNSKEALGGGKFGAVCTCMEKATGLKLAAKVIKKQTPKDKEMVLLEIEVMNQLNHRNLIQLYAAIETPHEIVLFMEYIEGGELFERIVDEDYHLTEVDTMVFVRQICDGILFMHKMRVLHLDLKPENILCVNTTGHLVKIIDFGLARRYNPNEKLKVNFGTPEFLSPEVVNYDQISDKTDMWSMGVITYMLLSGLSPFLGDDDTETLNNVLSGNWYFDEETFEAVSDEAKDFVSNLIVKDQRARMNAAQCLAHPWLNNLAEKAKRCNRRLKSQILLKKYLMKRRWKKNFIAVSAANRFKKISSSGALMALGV

[4] = biological target: T3, VEGFR2 (Homo sapiens, UniProt P35968)
T3 construct: gene KDR
T3 sequence (P35968 whole entry): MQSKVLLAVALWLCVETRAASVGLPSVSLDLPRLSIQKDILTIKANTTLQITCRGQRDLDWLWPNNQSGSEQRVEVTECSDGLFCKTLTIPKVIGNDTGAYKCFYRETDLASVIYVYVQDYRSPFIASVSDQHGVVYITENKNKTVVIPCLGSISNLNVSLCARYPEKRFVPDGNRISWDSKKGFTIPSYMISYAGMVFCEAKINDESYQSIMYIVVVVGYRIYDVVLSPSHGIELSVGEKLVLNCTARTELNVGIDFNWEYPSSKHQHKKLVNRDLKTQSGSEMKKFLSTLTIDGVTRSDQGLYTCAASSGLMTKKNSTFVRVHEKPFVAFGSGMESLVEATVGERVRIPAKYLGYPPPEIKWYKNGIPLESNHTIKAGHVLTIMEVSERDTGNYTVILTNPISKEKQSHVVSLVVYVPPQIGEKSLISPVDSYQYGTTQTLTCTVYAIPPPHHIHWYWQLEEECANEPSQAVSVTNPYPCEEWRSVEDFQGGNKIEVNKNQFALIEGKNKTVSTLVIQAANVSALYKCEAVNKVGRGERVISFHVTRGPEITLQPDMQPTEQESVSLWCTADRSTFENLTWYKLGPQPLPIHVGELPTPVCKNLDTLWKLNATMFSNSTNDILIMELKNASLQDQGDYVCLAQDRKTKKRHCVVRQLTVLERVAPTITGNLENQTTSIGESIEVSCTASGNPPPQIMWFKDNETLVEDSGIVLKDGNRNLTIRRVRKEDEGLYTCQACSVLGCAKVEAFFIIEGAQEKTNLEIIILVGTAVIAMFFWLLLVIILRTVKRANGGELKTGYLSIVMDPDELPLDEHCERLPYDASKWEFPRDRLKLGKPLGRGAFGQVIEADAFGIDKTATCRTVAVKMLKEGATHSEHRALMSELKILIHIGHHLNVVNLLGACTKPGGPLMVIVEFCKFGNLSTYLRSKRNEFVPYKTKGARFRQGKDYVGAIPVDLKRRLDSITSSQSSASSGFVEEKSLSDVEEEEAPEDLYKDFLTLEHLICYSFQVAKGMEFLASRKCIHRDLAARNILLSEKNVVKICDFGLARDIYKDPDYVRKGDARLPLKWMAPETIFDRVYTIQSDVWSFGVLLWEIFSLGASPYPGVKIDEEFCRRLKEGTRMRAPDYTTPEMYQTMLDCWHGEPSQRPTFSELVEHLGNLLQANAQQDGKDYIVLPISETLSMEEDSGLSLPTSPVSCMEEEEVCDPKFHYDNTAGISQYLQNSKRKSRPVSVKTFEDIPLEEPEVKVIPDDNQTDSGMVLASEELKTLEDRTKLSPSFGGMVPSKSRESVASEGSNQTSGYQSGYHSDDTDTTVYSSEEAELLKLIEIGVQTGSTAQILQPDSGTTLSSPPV

[5] = biological target: T4, RIPK1 (Homo sapiens, UniProt Q13546)
T4 sequence (Q13546 1-671): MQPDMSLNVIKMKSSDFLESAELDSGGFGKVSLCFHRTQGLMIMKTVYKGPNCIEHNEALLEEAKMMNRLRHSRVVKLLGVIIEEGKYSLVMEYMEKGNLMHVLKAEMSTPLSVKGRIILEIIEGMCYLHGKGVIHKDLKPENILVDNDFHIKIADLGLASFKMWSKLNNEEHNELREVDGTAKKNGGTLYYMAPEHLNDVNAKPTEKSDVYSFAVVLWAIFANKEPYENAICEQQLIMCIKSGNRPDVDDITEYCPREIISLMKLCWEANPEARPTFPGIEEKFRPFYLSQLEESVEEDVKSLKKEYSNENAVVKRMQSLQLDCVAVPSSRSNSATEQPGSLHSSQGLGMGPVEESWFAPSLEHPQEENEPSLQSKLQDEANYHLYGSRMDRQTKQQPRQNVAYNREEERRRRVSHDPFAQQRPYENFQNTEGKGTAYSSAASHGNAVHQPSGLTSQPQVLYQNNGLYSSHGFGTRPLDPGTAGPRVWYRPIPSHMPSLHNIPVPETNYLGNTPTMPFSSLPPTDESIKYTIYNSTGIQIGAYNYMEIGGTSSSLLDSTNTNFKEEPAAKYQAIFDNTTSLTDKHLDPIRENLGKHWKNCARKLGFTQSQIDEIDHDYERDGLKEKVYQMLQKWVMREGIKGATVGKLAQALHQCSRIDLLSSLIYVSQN

[6] = read-out: Niraparib (MK-4827) / %Ctrl @ 10000nM
[7] = read-out: Olaparib / %Ctrl @ 10000nM
[8] = read-out: Rucaparib / %Ctrl @ 10000nM, binding competition, % of control
[9] = read-out: Talazoparib (BMN 673) / %Ctrl @ 10000nM

Structure (SMILES): NC(=O)c1cccc2cn(-c3ccc([C@@H]4CCCNC4)cc3)nc12 [Niraparib]
- percent of control binding at 10 µM [1, 6]: 64%
- percent of control binding at 10 µM [2, 6]: 81%
- percent of control binding at 10 µM [3, 6]: 92%
- percent of control binding at 10 µM [4, 6]: 77%
- percent of control binding at 10 µM [5, 6]: 91%

- percent of control binding at 10 µM [1, 7]: 91%
- percent of control binding at 10 µM [2, 7]: 100%
- percent of control binding at 10 µM [3, 7]: 100%
- percent of control binding at 10 µM [4, 7]: 95%
- percent of control binding at 10 µM [5, 7]: 100%
Structure (SMILES): O=C(c1cc(Cc2n[nH]c(=O)c3ccccc23)ccc1F)N1CCN(C(=O)C2CC2)CC1 [Olaparib]

- percent of control binding at 10 µM [1, 8]: 67%
- percent of control binding at 10 µM [2, 8]: 88%
- percent of control binding at 10 µM [3, 8]: 74%
- percent of control binding at 10 µM [4, 8]: 98%
- percent of control binding at 10 µM [5, 8]: 99%
Structure (SMILES): CNCc1ccc(-c2[nH]c3cc(F)cc4c3c2CCNC4=O)cc1 [Rucaparib]

- percent of control binding at 10 µM [1, 9]: 89%
- percent of control binding at 10 µM [2, 9]: 100%
- percent of control binding at 10 µM [3, 9]: 100%
- percent of control binding at 10 µM [4, 9]: 100%
- percent of control binding at 10 µM [5, 9]: 99%
Structure (SMILES): Cn1ncnc1[C@H]1c2n[nH]c(=O)c3cc(F)cc(c23)N[C@@H]1c1ccc(F)cc1 [Talazoparib]
